One assay addresses T1, HDAC4 (Homo sapiens, UniProt P56524).
T1 construct: purchased BPS Bioscience 50004
The assay is described as follows: HDAC inhibition assay (fluorogenic, Ac-Leu-Gly-Lys(Tfa)-AMC). It is filed as biochemical. As to conditions: 2 internal replicates; for remaining activity at 5 µM / remaining activity at 50 µM: read-out: residual enzymatic activity relative to control wells.

A further assay deals with T2, HDAC8 (Homo sapiens, UniProt Q9BY41).
T2 construct: HDAC8 (full length, C-terminal His tag, BPS Bioscience, cat. #: 50008); purchased BPS Bioscience 50008
T2 sequence (Q9BY41 1-377): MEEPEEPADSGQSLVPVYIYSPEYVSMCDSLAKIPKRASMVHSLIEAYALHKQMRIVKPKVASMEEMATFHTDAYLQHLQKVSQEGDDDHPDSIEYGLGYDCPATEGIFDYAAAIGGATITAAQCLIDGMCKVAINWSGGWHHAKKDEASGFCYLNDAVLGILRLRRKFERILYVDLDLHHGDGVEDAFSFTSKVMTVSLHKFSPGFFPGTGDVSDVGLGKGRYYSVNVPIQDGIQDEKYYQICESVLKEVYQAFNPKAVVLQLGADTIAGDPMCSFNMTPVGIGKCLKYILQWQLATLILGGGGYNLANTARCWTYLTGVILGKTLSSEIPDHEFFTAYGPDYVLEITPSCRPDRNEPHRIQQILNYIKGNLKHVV
The assay is described as follows: Recombinant HDAC µSPOT microarray binding assay.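 Note: peptide µSPOT slides incubated with varying HDAC enzyme concentrations, imaged signal intensity fitted by four-parameter variable-slope regression, EC50 is enzyme concentration giving half-maximal binding, pH 7.4 HEPES buffer.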

Structures are written as SMILES. Non-standard residues stand in square brackets, D forms with d. Residues, ends and D or L forms follow the SMILES beside them. *: point of attachment. Asu = N[C@@H](CCCCCC(=O)O)C(=O)O; NHOH = ON*

Consider four molecules from article PMC7782793, “Hydroxamic acid-modified peptide microarrays for profiling isozyme-selective interactions and inhibition of histone deacetylases” (Nature Communications, 2021).

T1 sequence (P56524 627-1084): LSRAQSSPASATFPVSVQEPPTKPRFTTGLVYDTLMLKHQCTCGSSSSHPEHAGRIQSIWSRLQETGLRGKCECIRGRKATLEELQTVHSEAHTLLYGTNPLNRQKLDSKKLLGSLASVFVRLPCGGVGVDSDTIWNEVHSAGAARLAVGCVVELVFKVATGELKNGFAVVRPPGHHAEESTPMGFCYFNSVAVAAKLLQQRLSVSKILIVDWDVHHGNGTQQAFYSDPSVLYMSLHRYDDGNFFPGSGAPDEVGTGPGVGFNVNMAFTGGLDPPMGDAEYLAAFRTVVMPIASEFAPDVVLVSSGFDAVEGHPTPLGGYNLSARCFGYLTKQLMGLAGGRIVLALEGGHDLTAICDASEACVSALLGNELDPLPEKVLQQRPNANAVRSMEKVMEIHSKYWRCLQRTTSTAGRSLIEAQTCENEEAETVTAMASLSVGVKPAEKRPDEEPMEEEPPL
Description for HDAC8: Experiments were performed twice, data were obtained with Array Analyze software (Active Motif), and data analysis and representation were performed with the GraphPad Prism 7 software. Outliers were curated manually and data were fitted to nonlinear regression [log(agonist) vs. response—variable slope (four parameters)]. […] Non-sigmoidal curves were denoted as not determined (N.D.) The pEC50 values were determined as the concentration of HDAC enzyme required for half-maximal binding signal.

`CC(=O)NCC(=O)NCC(=O)N[C@@H](CCCCCC(=O)NO)C(=O)N[C@@H](C)C(=O)N[C@@H](CCCNC(=N)N)C(=O)N[C@@H](C)C(=O)N[C@@H](CCCCN)C(=O)N[C@@H](C)C(=O)N[C@@H](CCCCN)C(=O)N[C@H](C(=O)N[C@@H](CCCNC(=N)N)C(=O)N[C@@H](CO)C(=O)N[C@@H](CO)C(=O)N[C@@H](CCCNC(=N)N)C(=O)N[C@@H](C)C(=O)NCC(=O)N[C@@H](Cc1c[nH]c2ccccc12)C(N)=O)[C@@H](C)O` [9a] (Ac-GG[Asu](NHOH)ARAKAKTRSSRAGW-NH2): at HDAC4 (inhibitor 5 µM), the “residual enzymatic activity relative to control wells” value is reported as 94.96 and the remaining activity at 5 µM came out at 97.8%. On HDAC4 (inhibitor 50 µM), the “residual enzymatic activity relative to control wells” value is recorded as 54.4 and the remaining activity at 50 µM was found to be 57.5%. For the same molecule, at HDAC8, the EC50 (as a rule, the concentration at which the effect is half-maximal) is greater than 25.1 nM.
In the same order, the values of `CC(=O)N[C@@H](C)C(=O)N1CCC[C@H]1C(=O)N[C@@H](C)C(=O)N1CCC[C@H]1C(=O)N[C@@H](CCCCN)C(=O)N[C@@H](CCCCCC(=O)NO)C(=O)NCC(=O)N[C@@H](CO)C(=O)N[C@@H](CCCCN)C(=O)N[C@@H](CCCCN)C(=O)N[C@@H](C)C(=O)N[C@H](C(=O)N[C@H](C(=O)N[C@@H](CCCCN)C(=O)N[C@@H](C)C(=O)N[C@@H](CCC(N)=O)C(=O)N[C@@H](Cc1c[nH]c2ccccc12)C(N)=O)[C@@H](C)O)C(C)C` [10a] (Ac-APAPK[Asu](NHOH)GSKKAVTKAQW-NH2) are 95.93, 100%, 77.53, 80.4% and greater than 25.1 nM.
`CC(=O)N[C@@H](CC(C)C)C(=O)NCC(=O)N[C@@H](CCCCN)C(=O)NCC(=O)NCC(=O)N[C@@H](C)C(=O)N[C@@H](CCCCCC(=O)NO)C(=O)N[C@@H](CCCNC(=N)N)C(=O)N[C@@H](Cc1c[nH]cn1)C(=O)N[C@@H](CCCNC(=N)N)C(=O)N[C@@H](CCCCN)C(=O)N[C@H](C(=O)N[C@@H](CC(C)C)C(=O)N[C@@H](CCCNC(=N)N)C(=O)N[C@@H](CC(=O)O)C(=O)N[C@@H](CC(N)=O)C(=O)N[C@@H](Cc1c[nH]c2ccccc12)C(N)=O)C(C)C` [16a] (Ac-LGKGGA[Asu](NHOH)RHRKVLRDNW-NH2): at HDAC4 (inhibitor 5 µM), the “residual enzymatic activity relative to control wells” value amounted to 96.58 and the remaining activity at 5 µM amounted to 93.6%. Besides, on HDAC4 (inhibitor 50 µM), the “residual enzymatic activity relative to control wells” value is listed as 68.39 and the remaining activity at 50 µM stood at 67.1%.
`CC(=O)N1CCC[C@H]1C(=O)N[C@@H](CCCNC(=N)N)C(=O)N[C@@H](CCCCN)C(=O)N[C@@H](CCC(N)=O)C(=O)N[C@@H](CC(C)C)C(=O)N[C@@H](C)C(=O)N[C@H](C(=O)N[C@@H](CCCCN)C(=O)N[C@@H](C)C(=O)N[C@@H](C)C(=O)N[C@@H](CCCNC(=N)N)C(=O)N[C@@H](CCCCCC(=O)NO)C(=O)N[C@@H](CO)C(=O)N[C@@H](C)C(=O)N1CCC[C@H]1C(=O)N[C@@H](C)C(=O)N[C@@H](Cc1c[nH]c2ccccc12)C(N)=O)[C@@H](C)O` [14a] (Ac-PRKQLATKAAR[Asu](NHOH)SAPAW-NH2): on HDAC4 (inhibitor 5 µM), the “residual enzymatic activity relative to control wells” value was 82.79 and the remaining activity at 5 µM was found to be 91.8%. On HDAC4 (inhibitor 50 µM), the “residual enzymatic activity relative to control wells” value is 33.99 and the remaining activity at 50 µM was 41.7%. For the same molecule, the EC50 at HDAC8 is 3.02 nM.
